This data set can be described thus: Compound was evaluated for dissociation constant (pKa). In kind it is physicochemical.
One may read the pKa as the negative logarithm of the acid dissociation constant. `Cc1cc2ncn(C)c2cc1C` came in with a pKa of 6.

Turning to `Cn1cnc2cc([N+](=O)[O-])c([N+](=O)[O-])cc21`, the pKa turned out to be 1.6.

`Cn1cnc2ccccc21`: the pKa came out at 5.6. To `Cn1cnc2ccc([N+](=O)[O-])cc21` belongs 3.35. For `Cc1ccc2ncn(C)c2c1`, the pKa came to 5.7.

Turning to `Cc1ccc2c(c1)ncn2C`, the pKa stood at 5.65. In turn, `Cn1cnc2cc([N+](=O)[O-])ccc21` gave a pKa of 3.28.
